Earlier results in patent US20060177438A1, “Methods of altering absorption of hydrophobic compounds” (New England Medical Center, priority 2005, published 2006).

Settings: cited from earlier work

In the case of CC(C)CCC[C@@H](C)[C@H]1CC[C@H]2[C@@H]3CC=C4C[C@@H](O)CC[C@]4(C)[C@H]3CC[C@]12C [cholesterol], the “dietary cholesterol absorbed by the human intestine” value is listed as 34-57%.
